Molecular target: T1, PTP1B (protein tyrosine phosphatase 1B) (Homo sapiens, UniProt P18031)
T1 construct: gene PTPN1
T1 sequence (P18031 1-435): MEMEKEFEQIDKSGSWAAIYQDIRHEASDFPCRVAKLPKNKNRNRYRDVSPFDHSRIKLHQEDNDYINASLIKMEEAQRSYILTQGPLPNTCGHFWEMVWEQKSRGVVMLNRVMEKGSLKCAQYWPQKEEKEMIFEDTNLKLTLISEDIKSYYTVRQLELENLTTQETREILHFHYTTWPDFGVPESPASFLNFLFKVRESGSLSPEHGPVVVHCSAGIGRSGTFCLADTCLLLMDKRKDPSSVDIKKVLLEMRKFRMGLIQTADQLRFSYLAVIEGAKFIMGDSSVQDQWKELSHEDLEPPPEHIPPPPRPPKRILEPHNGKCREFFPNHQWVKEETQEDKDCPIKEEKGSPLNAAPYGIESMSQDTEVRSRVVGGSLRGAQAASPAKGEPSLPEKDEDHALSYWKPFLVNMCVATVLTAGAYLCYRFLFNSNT
Experiment: p-NPP hydrolysis assay with recombinant human PTP1B; Lineweaver-Burk kinetics
Assay type: biochemical

Q: `O=C(O)C[C@@H]1C(C(=O)O)=CO[C@@H](O[C@@H]2O[C@H](CO)[C@@H](O)[C@H](O)[C@H]2O)C1=CCOC(=O)/C=C/c1ccc(O)cc1` [compound 3, Symplocochinside C] was tested. Which IC50 did it give?
A: Its IC50 is 19.5 ± 0.76 µM.
